The record followed here is patent US20260109695A1, “PEROXIREDOXIN 3 INHIBITORS AND METHODS OF USE FOR TREATING CANCER” (WAKE FOREST UNIVERSITY HEALTH SCIENCES, priority 2022, published 2026).

Series [1] concerns Enterococcus hirae (ATCC #10541). Nature of the series: Antimicrobial Activity Assay. The following applies: Enterococcus hirae, minimal inhibitory concentration. In kind it is cell-based. How it is done: The overnight growth was then diluted into growth media to make a single solution of E. hirae with a final optical density at 600 nm=0.02 AU. A 20 mM stock solution of Thiostrepton in DMSO was made and used to make multiple dilutions of TS in DMSO. Each TS dilution (0.1 mL) was then added to a test tube containing 10 mL of the diluted E. hirae and grown at 37° C. overnight while shaking at 180 rpm. The next morning, each tube was visually inspected to determine if the cells grew. Final concentrations tested were 0.120, 0.090, 0.075, 0.060, 0.045, 0.030, and 0.015 μM TS. […] Three replicates were made on three separate days (n=9). […] For TS analogs, the dilute E. hirae was treated with 20 µM final concentration of each analog (three replicates each). […] DMSO was used as a positive control (complete cell growth) and 20 µM thiostrepton was used as a negative control.

A further series is described as follows: Solubility Assay. The following applies: 100 mM NaCl buffer, aqueous with cosolvent or surfactant or cyclodextrin, kinetic from dmso stock, 20 mM HEPES, pH 7.5, 18-24 hours at ambient temperature, read-out: Solubility. Type of series: physicochemical. How it is done:
A 20 mM stock solution was made for each compound in DMSO. To measure solubility, 0.03-0.05 mL of the stock was added to 0.27 mL 20 mM HEPES, 100 mM NaCl, pH 7.5. The solution was mixed and rotated 18-24 hours at ambient temperature. The next day, solutions were centrifuged for 10 min at 20,000×g at 24° C. to remove insoluble, solid material. Next, 100 μL of the supernatant containing the soluble compound was added to 900 μL DMSO and High Performance Liquid Chromatography was performed as described in Table 1 and either HPLC gradient 1 (Table 2) for HPLC gradient 2 (Table 3). For each analog, a 200 μM standard and a 20 μM standard were prepared and run in parallel (standards were dissolved completely in 100% DMSO). The amount of compound in the experimental sample was calculated by comparing the area under the curve for compound peak to the area for the closest standard and correcting for dilution.

Each structure is given as a SMILES string. Bounds are passed on as bounds.

As to `C=C(NC(=O)c1csc(N2CCC(NC(=O)OC(C)(C)C)CC2)n1)C(=O)NC(=C)C(=O)OC` [Compound A, Methyl 2-(2-(2-(4-((tert-butoxycarbonyl)amino)piperidin-1-yl)thiazole-4-carboxamido)acrylamido)acrylate, reference compound], the “Antimicrobial Activity” value in series [1] was “− (>20 μM)”. In addition, in the series “Solubility Assay”, the solubility is under 100 µM.
As to `C=C(NC(=O)c1csc(-c2ccc(NC(=O)CCCCCBr)cc2)n1)C(=O)NC(=C)C(=O)OC` [Compound B, Methyl 2-(2-(2-(4-(6-bromohexanamido)phenyl)thiazole-4-carboxamido)acrylamido)acrylate, reference compound], the solubility in “Solubility Assay” was under 100 µM.

Usually solubility stands for the concentration that dissolves in the medium under given conditions.
